Values quoted from earlier work, collected in paper PMC3792642 (Acta Crystallographica Section D: Biological Crystallography, 2013).

Legend:
[1] = tested on: Mtb; details: VKOR-dependent manner; ref Dutton et al., 2010; cited from earlier work
[2] = tested on: MtbVKOR; details: ref Dutton et al., 2010; cited from earlier work

## CC(=O)CC(c1ccccc1)c1c(O)c2ccccc2oc1=O (centres unmarked) [warfarin]
[1]
  Inhibition of growth of Mtb: inhibit growth of Mtb
[2]
  Inhibition of MtbVKOR: inhibit MtbVKOR
